Measurements reported in patent US9734282B2, “Biological dataset profiling of cardiovascular disease and cardiovascular inflammation” (DISCOVERX CORPORATION, priority 2005, dated 2017).

Legend:
[1] = system: Peripheral Blood Mononuclear Cells + Endothelial Cells; assay: BioMAP LPS system (PBMC + endothelial cells, TLR4), cell-based ELISA; set-up: species or system human
Protocol: Human umbilical vein endothelial cells (HUVEC) were cultured according to standard methods, and plated into microtiter plates. Peripheral blood mononuclear cells (PBMC) were prepared from buffy coats from normal human donors according to standard methods. Experiments were performed by culturing HUVEC in microtiter plates in the presence of cytokines (IL-1b, 1 ng/ml; TNF-a, 5 ng/ml; and IFN-g, 100 ng/ml, or IL-4, 5 ng/ml and histamine, […]), activators (SAg, 20 ng/ml or LPS, 0.2 ng/ml), and/or PBMC (7.5×10^4 cells/well) for 24 h. Compounds were tested at the indicated concentrations. Compounds were prepared in the solvent as directed, added 1 hr before stimulation of the cells, and were present during the whole 24 hr stimulation period. The levels of readout parameters (proteins) were measured by cell-based ELISA. Briefly, microtiter plates are treated, blocked, and then incubated with primary antibodies or isotype control antibodies (0.01-0.5 mg/ml) for 1 hr. After washing, plates were incubated with a peroxidase-conjugated anti-mouse IgG secondary antibody or a biotin-conjugated anti-mouse IgG antibody for 1 hr followed by streptavidin-HRP for 30 min. Plates were washed and developed with TMB substrate and the absorbance (OD) was read at 450 nm (subtracting the background absorbance at 650 nm). Other readout parameters include: total protein levels (SRB assay), measuring the viability of peripheral blood mononuclear cells (incorporation of propidium iodide); and microscopic visualization. SRB was performed by staining cells with 0.1% sulforhodamine B after fixation with 10% TCA, and reading wells at 560 nm. PBMC viability was assessed by adding propidium iodide (10 mg/ml) to PBMC that had been cultured for 24 hours in the presence of activators and measuring the percentage of cells that incorporated dye by flow cytometry after 10 minutes. For data analysis, mean OD values (or other measurements) for each parameter were calculated from triplicate samples per experiment. The mean value obtained for each parameter in a treated sample was then divided by the mean value from an appropriate control to generate a ratio. All ratios were then log 10 transformed. An average or “trusted” profile was created by averaging 2 repeats of the experiment for each compound and concentration combination. 99% prediction envelopes (grey shading in Figures) were calculated for historical controls.

[2] = system: Primary human umbilical artery smooth muscle cells (UASMC); assay: BioMAP SM3C system (smooth muscle cells + IL-1 + TNF-a + IFNg); type: cell-based
Protocol: Primary human umbilical artery smooth muscle cells (UASMC) are used. Other cells that may replace UASMC in the screen include primary aortic, bronchial, coronary artery or pulmonary artery smooth muscle cells. Other muscle cells of interest include skeletal muscle cells and cardiomyocytes. Passage 5-7 cells are used for the screen. 4×10^4 cells/ml are cultured to 100% confluence on CellBind plates (Costar) in SmGM-2 (Clonetics) containing 5% FBS. In some cases, SmGM-2 may be removed 24 hours before screen, and replaced with serum-free SmBM basal media (Clonetics) supplemented with insulin. The following are then applied for 24 hours: Factors include a combination of IL-4 (5 ng/ml), and histamine (HIS) (10 μM) or a combination of IL-1 (1 ng/ml), TNF-a (5 ng/ml) and IFNg (20 ng/ml) (SM3C) and/or thrombin (10 units/ml) for 6 and/or 24 hours. Standard concentrations of agents are employed as described in the literature. Other factors of interest include: IL-6, LPS, endothelin-1 and angiotensin II. Based on the parameters altered by the indicated factors, BioMAPs are generated for the parameters VCAM, HLA-DR, IL-8, MCP-1, Thrombomodulin, tissue factor, LDL-receptor and uPAR. […]

[3] = system: heart transplant patients; conditions: cited from earlier work
[4] = system: Primary Human Endothelial Cells (HUVEC); assay: BioMAP 3C system (endothelial cells + IL-1β + TNF-α + IFN-γ), cell-based ELISA; conditions: for uPAR level: protein level drug-treated versus buffer control, 24 h
Protocol: Human umbilical vein endothelial cells (HUVEC) were cultured according to standard methods, and plated into microtiter plates. Peripheral blood mononuclear cells (PBMC) were prepared from buffy coats from normal human donors according to standard methods. Experiments were performed by culturing HUVEC in microtiter plates in the presence of cytokines (IL-1b, 1 ng/ml; TNF-a, 5 ng/ml; and IFN-g, 100 ng/ml, or IL-4, 5 ng/ml and histamine, […]), activators (SAg, 20 ng/ml or LPS, 0.2 ng/ml), and/or PBMC (7.5×10^4 cells/well) for 24 h. Compounds were tested at the indicated concentrations. Compounds were prepared in the solvent as directed, added 1 hr before stimulation of the cells, and were present during the whole 24 hr stimulation period. The levels of readout parameters (proteins) were measured by cell-based ELISA. Briefly, microtiter plates are treated, blocked, and then incubated with primary antibodies or isotype control antibodies (0.01-0.5 mg/ml) for 1 hr. After washing, plates were incubated with a peroxidase-conjugated anti-mouse IgG secondary antibody or a biotin-conjugated anti-mouse IgG antibody for 1 hr followed by streptavidin-HRP for 30 min. Plates were washed and developed with TMB substrate and the absorbance (OD) was read at 450 nm (subtracting the background absorbance at 650 nm). Other readout parameters include: total protein levels (SRB assay), measuring the viability of peripheral blood mononuclear cells (incorporation of propidium iodide); and microscopic visualization. SRB was performed by staining cells with 0.1% sulforhodamine B after fixation with 10% TCA, and reading wells at 560 nm. PBMC viability was assessed by adding propidium iodide (10 mg/ml) to PBMC that had been cultured for 24 hours in the presence of activators and measuring the percentage of cells that incorporated dye by flow cytometry after 10 minutes. For data analysis, mean OD values (or other measurements) for each parameter were calculated from triplicate samples per experiment. […] 99% prediction envelopes (grey shading in Figures) were calculated for historical controls.

Macrophages + HUVEC = assay: BioMAP Mphg system (macrophages + endothelial cells + Zymosan); type: cell-based, human
Protocol: Macrophages, are generated from human peripheral blood mononuclear cells. Human peripheral blood mononuclear cells are isolated from blood by Ficoll-hypaque density gradient centrifugation as described (Ponath, JEM 183:2437, 1996). Monocytes are then isolated by negative selection using the Monocyte Isolation Kit II (Miltenyi Biotec, Germany) MACS beads according to the manufacturer's instructions. Alternatively, 10×10^6 peripheral blood mononuclear cells/ml are cultured in RPMI containing 10% fetal bovine serum for 3 hours and non-adherent lymphocytes are removed by gentle washing. The following are then applied for 7 to 8 days: MCSF (50 ng/ml) alone, or MCSF+one of the following cytokines, IL-4 (20 ng/ml), IL-6 (20 ng/ml), IFN-gamma (10 ng/ml), or GM-CSF (10 ng/ml)+IL-4 (20 ng/ml). To generate foam cells, the culture media is replaced with media containing 40% autologous serum or 40% Human AB Serum male (Cambrex Bioproducts) in RPMI+MCSF 50 ng/ml for an additional 4 to 5 days. Cells are harvested and resuspended to 10^6 cells/ml and added to confluent endothelial cells. Primary human umbilical vein endothelial cells (HUVEC) are used. Other cells that may replace HUVEC in the screen include primary microvascular endothelial cells, aortic or arteriolar endothelial cells. 7.5×10^4 cells/ml are cultured to confluence in EGM-2 (Clonetics). […]

[5] = system: Peripheral Blood Mononuclear Cells + Endothelial Cells; assay: BioMAP SAg system (PBMC + endothelial cells, TCR), cell-based ELISA; set-up: species or system human; conditions: for CD69 level / E-selectin level / IL-8 level: protein level drug-treated versus buffer control, 24 h
Protocol: (§1) Human umbilical vein endothelial cells (HUVEC) were cultured according to standard methods, and plated into microtiter plates. Peripheral blood mononuclear cells (PBMC) were prepared from buffy coats from normal human donors according to standard methods. Experiments were performed by culturing HUVEC in microtiter plates in the presence of cytokines (IL-1b, 1 ng/ml; TNF-a, 5 ng/ml; and IFN-g, 100 ng/ml, or IL-4, 5 ng/ml and histamine, […]), activators (SAg, 20 ng/ml or LPS, 0.2 ng/ml), and/or PBMC (7.5×10^4 cells/well) for 24 h. Compounds were tested at the indicated concentrations. Compounds were prepared in the solvent as directed, added 1 hr before stimulation of the cells, and were present during the whole 24 hr stimulation period.
(§2) The levels of readout parameters (proteins) were measured by cell-based ELISA. Briefly, microtiter plates are treated, blocked, and then incubated with primary antibodies or isotype control antibodies (0.01-0.5 mg/ml) for 1 hr. After washing, plates were incubated with a peroxidase-conjugated anti-mouse IgG secondary antibody or a biotin-conjugated anti-mouse IgG antibody for 1 hr followed by streptavidin-HRP for 30 min. Plates were washed and developed with TMB substrate and the absorbance (OD) was read at 450 nm (subtracting the background absorbance at 650 nm). Other readout parameters include: total protein levels (SRB assay), measuring the viability of peripheral blood mononuclear cells (incorporation of propidium iodide); and microscopic visualization. SRB was performed by staining cells with 0.1% sulforhodamine B after fixation with 10% TCA, and reading wells at 560 nm. PBMC viability was assessed by adding propidium iodide (10 mg/ml) to PBMC that had been cultured for 24 hours in the presence of activators and measuring the percentage of cells that incorporated dye by flow cytometry after 10 minutes.
(§3) For data analysis, mean OD values (or other measurements) for each parameter were calculated from triplicate samples per experiment. The mean value obtained for each parameter in a treated sample was then divided by the mean value from an appropriate control to generate a ratio. All ratios were then log 10 transformed. An average or “trusted” profile was created by averaging 2 repeats of the experiment for each compound and concentration combination. 99% prediction envelopes (grey shading in Figures) were calculated for historical controls.

[6] = system: HUVEC and HUVEC + PBMC systems; assay: 4 system BioMAP activity profile (3C, 4H, LPS, SAg); type: cell-based, human; conditions: data not shown
Protocol: as §1, §2
For data analysis, mean OD values (or other measurements) for each parameter were calculated from triplicate samples per experiment. […] 99% prediction envelopes (grey shading in Figures) were calculated for historical controls.

[7] = system: Primary Human Endothelial Cells (HUVEC); assay: BioMAP 4H system (endothelial cells + IL-4 + histamine), cell-based ELISA; conditions: protein level drug-treated versus buffer control, 24 h
Protocol: as §1, §2, §3

[8] = protein level drug-treated versus buffer control, 24 h

COc1c(C)c2c(c(O)c1C/C=C(\C)CCC(=O)O)C(=O)OC2 [mycophenolic acid]
MCP-1 level [1]: inhibition
MCP-1 level [2]: inhibition
long-term benefit against post-transplant vasculopathy [3]: protecting against post-transplant vasculopathy
MCP-1 level [4]: inhibition
MCP-1 level (Macrophages + HUVEC): inhibition
MCP-1 level [5]: inhibition

CC[C@H](C)C(=O)O[C@H]1CCC=C2C=C[C@H](C)[C@H](CC[C@@H]3C[C@@H](O)CC(=O)O3)[C@H]21 [mevastatin]
BioMAP profile compared with the lovastatin profile [6]: induce the same BioMAP profile

S=C([S-])OC1CC2CC1C1CCCC21.[K+] (stereo not drawn) [D609]
CD69 level [5]: downregulation
E-selectin level [5]: upregulation
IL-8 level [5]: upregulation

CC[C@H](C)C(=O)O[C@H]1C[C@@H](C)C=C2C=C[C@H](C)[C@H](CC[C@@H]3C[C@@H](O)CC(=O)O3)[C@H]21 [lovastatin]
IL-1alpha level [1, 8]: significant decreases
M-CSF level [1, 8]: increases
tissue factor level [1, 8]: increases
Eotaxin-3 level [7]: increases
MCP-1 level [7]: significant decreases
uPAR level [4]: significant decreases

CCCCCCCCCCCCCCCCCCOCC(COP(=O)([O-])OCC[N+](C)(C)C)OC (stereo not drawn) [ET-18-OCH3]
CD69 level [5]: downregulation
E-selectin level [5]: upregulation
IL-8 level [5]: upregulation

CC(C)c1c(C(=O)Nc2ccccc2)c(-c2ccccc2)c(-c2ccc(F)cc2)n1CC[C@@H](O)C[C@@H](O)CC(=O)O [atorvastatin]
Eotaxin-3 level [7]: increases
MCP-1 level [7]: significant decreases
uPAR level [4]: significant decreases
BioMAP profile compared with the lovastatin profile [6]: induce the same BioMAP profile

COCc1c(C(C)C)nc(C(C)C)c(/C=C/[C@@H](O)C[C@@H](O)CC(=O)O)c1-c1ccc(F)cc1 [cerevistatin]
BioMAP profile compared with the lovastatin profile [6]: induce the same BioMAP profile
